Assay results published in US20250122207A1, “AP2 ASSOCIATED KINASE 1 INHIBITORS AND USES THEREOF” (Satellos Bioscience Inc., priority 2023, published 2025).
Where two headings read alike, the source gives them in different places.

Experiments:
[1] = molecular target: T1, BIKE (amino acids S38-E345) (K320A, K321A) (Homo sapiens, UniProt Q9NSY1, K320A/K321A); assay: BIKE pSENs assay; format: biochemical
T1 construct: against BIKE (amino acids S38-E345) (K320A, K321A); 6His (N, cleaved yes)
Procedure: (§1) The recombinant proteins were independently expressed in Escherichia coli BL21(DE3) cells cultured in Luria-Bertani (LB) medium until OD600 reached 0.6-0.8, then cooled to 15° C. and supplemented with 0.5 mM isopropyl 1-thio-D-galactopyranoside (IPTG) induce protein expression 16 h. Cells were harvested and resuspended in lysis buffer (50 mM HEPES pH 7.5, 500 mM NaCl, 5 mM imidazole, 5% glycerol, 0.5 mM Tris (2-carboxyethyl) phosphine (TCEP), cOmplete Protease Inhibitor Tablet (Roche)) and lysed by microfludics high pressure homogenizer (UH-06, Union-Biotech). Proteins were purified using […] chromatography (His FF column, Bestchrom) and eluted stepwise in binding buffer with 20-300 mM imidazole. Removal of the hexahistidine tag was performed at 4° C. overnight using recombinant TEV protease and reacted with BirA to obtain the corresponding biotinylated-AAK1, BIKE or GAK proteins. Further separated in the reverse Strep column (Strep-Tactin® XT, IBA). The Biotin elution sample was collected containing untagged biotinylated protein was then purified by Ion-exchange chromatography (Mono Q 10/100 GL, Cytiva) and Size-exclusion chromatography (HiLoad 16/600 Superdex 200 pg, Cytiva). The pure protein was stored in a storage buffer 50 mM HEPES (pH 7.5), 300 mM NaCl, 5% glycerol at −80° C. Protein were characterized by SDS-PAGE, LC-MS and aSEC.
BIKE protein was dissolved at 20 nM in 1× enzyme solution (50 mM HEPES pH7.5, 10 mM MgCl2, 1 mM DTT, 1% glycerol, 0.5 mM EGTA, 0.01% Briji35, 0.02% BSA) and 12.5 ul was incubated with 250 nl DMSO or 250 nl compound in DMSO at 25° C. for 15 min. The reaction was started by addition of 12.5 ul of 30 uM AQT0759 (Assayquant, CSKS-AQT0759B) and 40 uM ATP which were diluted in 1× substrate dilution buffer (50 mM HEPES pH7.5, 10 mM MgCl2, 1 mM DTT, 1% glycerol, 0.5 mM EGTA, 0.01% Briji35).

[2] = molecular target: T2, GAK (amino acids Q25-N335) (Homo sapiens, UniProt O14976); assay: GAK pSENs assay; format: biochemical
T2 construct: against GAK (amino acids Q25-N335); 6His (N, cleaved yes)
T2 sequence (O14976 25-335): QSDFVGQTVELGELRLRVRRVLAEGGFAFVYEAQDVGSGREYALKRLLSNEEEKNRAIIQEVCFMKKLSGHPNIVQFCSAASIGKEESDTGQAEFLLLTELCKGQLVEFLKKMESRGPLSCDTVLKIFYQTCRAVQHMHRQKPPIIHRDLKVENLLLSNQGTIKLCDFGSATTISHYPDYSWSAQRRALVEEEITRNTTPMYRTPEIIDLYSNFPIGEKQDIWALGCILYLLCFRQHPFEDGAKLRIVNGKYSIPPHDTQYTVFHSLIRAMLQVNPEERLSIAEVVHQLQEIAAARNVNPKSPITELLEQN
Procedure: as §1
This example describes one illustrative method for determining the IC50 of the compounds of the present invention against GAK (amino acids Q25-N335).

[3] = molecular target: T3, AAK1 (amino acids T27-A365) (Homo sapiens, UniProt Q2M2I8); assay: AAK1 pSENs assay; format: biochemical
T3 construct: against AAK1 (amino acids T27-A365); 6His (N, cleaved yes)
How it was run: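 Biotinylated, tag-free AAK1 T27-A365 expressed in E. coli was held at 20 nM in enzyme solution (HEPES pH 7.5, 10 mM MgCl2, DTT, EGTA, Brij35, BSA) and preincubated with compound for 15 min at 25 °C. The reaction was started with an equal volume of substrate solution containing 30 uM AQT0759 peptide and 70 uM ATP. IC50 determined.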

AAK1 = AAK1 (Homo sapiens, UniProt Q2M2I8); assay: pAP2M1 cell-based assay (in-cell Western)
Description: pAP2M1 Cell-Based Assay (in-Cell Western):
The plate was read on Licor Odyssey CLx imaging system (LICOR) to acquire fluorescence intensity at 700 channel and 800 channel.
Data analysis: Fluorescence intensity at 700 channel served as internal standard and 800 channel were normalized with 700 channel.

[4] = class symbols, read-out: BIKE pSENs: IC50
[5] = class symbols, read-out: GAK pSENs:IC50
[6] = class symbols, read-out: AAK1 pSENs: EIC50
[7] = Hela cells co-transfected with AP2M1 and AAK1, 3 hr treatment, class symbols, read-out: AAK1 In-cell Western: IC50

T3 sequence (Q2M2I8 27-365): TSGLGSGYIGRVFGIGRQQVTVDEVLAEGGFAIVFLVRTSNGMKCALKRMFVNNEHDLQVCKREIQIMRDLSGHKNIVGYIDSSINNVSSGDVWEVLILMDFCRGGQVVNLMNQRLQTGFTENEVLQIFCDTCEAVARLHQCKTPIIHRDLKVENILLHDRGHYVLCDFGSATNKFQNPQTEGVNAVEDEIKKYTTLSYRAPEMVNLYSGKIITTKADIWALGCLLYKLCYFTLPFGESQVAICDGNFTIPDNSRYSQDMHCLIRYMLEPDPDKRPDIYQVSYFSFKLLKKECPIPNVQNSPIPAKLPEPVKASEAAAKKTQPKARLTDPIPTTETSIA
Chain of AAK1 (Q2M2I8 whole entry): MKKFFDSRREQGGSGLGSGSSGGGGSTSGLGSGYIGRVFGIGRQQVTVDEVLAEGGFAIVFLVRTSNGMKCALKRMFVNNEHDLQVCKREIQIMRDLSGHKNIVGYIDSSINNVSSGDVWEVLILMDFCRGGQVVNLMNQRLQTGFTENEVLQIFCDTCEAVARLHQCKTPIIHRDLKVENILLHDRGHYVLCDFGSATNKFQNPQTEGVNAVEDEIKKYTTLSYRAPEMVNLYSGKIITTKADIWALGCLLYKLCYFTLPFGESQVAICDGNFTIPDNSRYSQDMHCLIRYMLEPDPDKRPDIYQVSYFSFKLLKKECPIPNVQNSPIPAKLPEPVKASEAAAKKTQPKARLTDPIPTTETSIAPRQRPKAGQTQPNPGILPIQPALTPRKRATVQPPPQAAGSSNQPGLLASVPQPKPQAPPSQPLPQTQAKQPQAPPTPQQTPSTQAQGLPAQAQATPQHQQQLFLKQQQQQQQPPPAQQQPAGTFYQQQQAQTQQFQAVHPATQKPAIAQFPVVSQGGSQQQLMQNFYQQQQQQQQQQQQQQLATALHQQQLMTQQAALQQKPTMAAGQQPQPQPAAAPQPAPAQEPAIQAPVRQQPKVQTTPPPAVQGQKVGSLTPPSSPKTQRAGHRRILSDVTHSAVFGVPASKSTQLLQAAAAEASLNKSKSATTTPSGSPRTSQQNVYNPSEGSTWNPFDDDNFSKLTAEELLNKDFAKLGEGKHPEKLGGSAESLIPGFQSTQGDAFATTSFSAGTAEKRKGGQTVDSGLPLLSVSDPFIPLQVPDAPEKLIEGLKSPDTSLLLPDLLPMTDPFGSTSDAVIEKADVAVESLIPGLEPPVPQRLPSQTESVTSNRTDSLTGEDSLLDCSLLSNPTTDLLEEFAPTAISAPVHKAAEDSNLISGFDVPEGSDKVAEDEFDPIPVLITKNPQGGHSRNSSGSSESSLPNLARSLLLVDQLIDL
T1 sequence (Q9NSY1 38-345 K320A/K321A): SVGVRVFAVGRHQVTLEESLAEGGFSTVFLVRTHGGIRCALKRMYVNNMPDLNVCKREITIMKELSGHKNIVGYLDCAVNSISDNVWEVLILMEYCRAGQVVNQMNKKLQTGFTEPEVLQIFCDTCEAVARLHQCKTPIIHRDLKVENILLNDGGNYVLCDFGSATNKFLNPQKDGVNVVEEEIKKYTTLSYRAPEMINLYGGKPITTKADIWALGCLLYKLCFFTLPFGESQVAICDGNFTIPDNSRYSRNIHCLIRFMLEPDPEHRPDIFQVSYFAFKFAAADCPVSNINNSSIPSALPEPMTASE

Compound	IC50 [1, 4]	IC50 [2, 5]	IC50 [3, 6]	IC50 (AAK1; [7])	further results
CC1(OC(=O)N2CCN(c3ccn4ncc(-c5cccnc5OC5CC5)c4n3)CC2)CCNC1 (centres unmarked) [Compound I-13-5, (3-Methylpyrrolidin-3-yl) 4-[3-[2-(cyclopropoxy)-3-pyridyl]pyrazolo[1,5-a]pyrimidin-5-yl]piperazine-1-carboxylate]	51 to 150 nM	151 to 500 nM	–	–	–
CC1(OC(=O)N2CCN(c3ccn4ncc(-c5cccnc5OCC5COC5)c4n3)CC2)COC1 [Compound I-20]	–	501 to 1500 nM	151 to 500 nM	> 1500 nM	–
CC(C)Oc1ncccc1-c1cnn2ccc(N3CCN(C(=O)O[C@@]4(C)CCNC4)CC3)nc12 [Compound I-21, [(3S)-3-Methylpyrrolidin-3-yl]4-[3-(2-isopropoxy-3-pyridyl)pyrazolo[1,5-a]pyrimidin-5-yl]piperazine-1-carboxylate]	–	501 to 1500 nM	51 to 150 nM	> 1500 nM	–
O=C1C[C@H](OC(=O)N2CCN(c3ccn4ncc(-c5cccnc5NC5CCC5)c4n3)CC2)CN1 [Compound I-46, [(3S)-5-oxopyrrolidin-3-yl]4-[3-[2-(cyclobutylamino)-3-pyridyl]pyrazolo [1,5-a]pyrimidin-5-yl]piperazine-1-carboxylate]	–	501 to 1500 nM	> 1500 nM	> 1500 nM	–
C[C@@]1(OC(=O)N[C@H]2CCN(c3ccn4ncc(-c5cccnc5OC5CC5)c4n3)C2)CCNC1 [Compound I-57, (R)-3-methylpyrrolidin-3-yl ((S)-1-(3-(2-cyclopropoxypyridin-3-yl)pyrazolo[1,5-a]pyrimidin-5-yl)pyrrolidin-3-yl)carbamate]	–	501 to 1500 nM	51 to 150 nM	> 1500 nM	–
O=C(O[C@H]1CO[C@H]2OCC[C@H]21)N1CCN(c2ccn3ncc(-c4cnccn4)c3n2)CC1 [Compound I-66, [(3aS,4R,6aR)-2,3,3a,4,5,6a-hexahydrofuro[2,3-b]furan-4-yl]-4-(3-pyrazin-2-ylpyrazolo[1,5-a]pyrimidin-5-yl)piperazine-1-carboxylate]	–	501 to 1500 nM	151 to 500 nM	501 to 1500 nM	–
[2H]C1([2H])N(C(=O)O[C@H]2CC(=O)N(C)C2)C([2H])([2H])C([2H])([2H])N(c2ccn3ncc(-c4cccnc4OC4CC4)c3n2)C1([2H])[2H] [Compound I-73, [(3S)-1-methyl-5-oxo-pyrrolidin-3-yl]-4-[3-[2-(cyclopropoxy)-3-pyridyl]pyrazolo[1,5-a]pyrimidin-5-yl]-2,2,3,3,5,5,6,6-octadeuterio-piperazine-1-carboxylate]	–	–	–	–	IC50 [3]: 1 to 50 nM; AAK1:GAK pSENs Selectivity ([3]; ratio of AAK1 pSENs activity to GAK pSENs activity, class symbols): A (A: ≤0.015); IC50 [1]: 501 to 1500 nM; IC50 (AAK1): 501 to 1500 nM
CN1C[C@@H](OC(=O)N2CCN(c3ccn4ncc(-c5cc(F)cnc5OC5CC5)c4n3)CC2)CC1=O [Compound I-86]	151 to 500 nM	–	1 to 50 nM	151 to 500 nM	–
COCCN1C[C@@H](OC(=O)N2CCN(c3ccn4ncc(-c5cc(F)cnc5OC5CC5)c4n3)CC2)CC1=O [Compound I-89]	151 to 500 nM	–	1 to 50 nM	501 to 1500 nM	–
CN1C[C@@H](OC(=O)N2CCN(c3nc4c(-c5cccnc5OC5CC5)cnn4cc3F)CC2)CC1=O [Compound I-109, [(3S)-1-methyl-5-oxo-pyrrolidin-3-yl]4-[3-[2-(cyclopropoxy)-3-pyridyl]-6-fluoro-pyrazolo[1,5-a]pyrimidin-5-yl]piperazine-1-carboxylate]	51 to 150 nM	–	1 to 50 nM	151 to 500 nM	–
[2H]C([2H])([2H])N1C[C@@H](OC(=O)N2CCN(c3ccn4ncc(-c5cccnc5OC5CC5)c4n3)CC2)CC1=O [Compound I-113, [(3S)-5-oxo-1-(trideuteriomethyl)pyrrolidin-3-yl]4-[3-[2-(cyclopropoxy)-3-pyridyl]pyrazolo[1,5-a]pyrimidin-5-yl]piperazine-1-carboxylate]	–	–	–	151 to 500 nM	IC50 [3]: 1 to 50 nM; IC50 [1]: 501 to 1500 nM
CC(C)N1C[C@@H](OC(=O)N2CCN(c3ccn4ncc(-c5cccnc5OC5CC5)c4n3)CC2)CC1=O [Compound I-114, [(3S)-1-isopropyl-5-oxo-pyrrolidin-3-yl]-4-[3-[2-(cyclopropoxy)-3-pyridyl]pyrazolo[1,5-a]pyrimidin-5-yl]piperazine-1-carboxylate]	501 to 1500 nM	–	51 to 150 nM	> 1500 nM	–
COCCN1C[C@@H](OC(=O)N2CCN(c3ccn4ncc(-c5cccnc5OC5CC5)c4n3)CC2)CC1=O [Compound I-115, [(3S)-1-(2-methoxyethyl)-5-oxo-pyrrolidin-3-yl]-4-[3-[2-(cyclopropoxy)-3-pyridyl]pyrazolo[1,5-a]pyrimidin-5-yl]piperazine-1-carboxylate]	501 to 1500 nM	–	1 to 50 nM	501 to 1500 nM	–
[2H]C([2H])([2H])N1C[C@@H](OC(=O)N2CCN(c3nc4c(-c5cc(OC)cnc5OC5CC5)cnn4cc3F)CC2)CC1=O [Compound I-117, [(3S)-5-oxo-1-(trideuteriomethyl)pyrrolidin-3-yl]4-[3-[2-(cyclopropoxy)-5-methoxy-3-pyridyl]-6-fluoro-pyrazolo[1,5-a]pyrimidin-5-yl]piperazine-1-carboxylate]	1 to 50 nM	501 to 1500 nM	1 to 50 nM	–	–
CN1C[C@@H](OC(=O)N2CCN(c3ccn4ncc(-c5cccnc5OC5CCOC5)c4n3)CC2)CC1=O (stereo partly drawn) [Compound I-119, [(3S)-1-methyl-5-oxo-pyrrolidin-3-yl]4-[3-(2-tetrahydrofuran-3-yloxy-3-pyridyl)pyrazolo[1,5-a]pyrimidin-5-yl]piperazine-1-carboxylate]	501 to 1500 nM	–	51 to 150 nM	> 1500 nM	–
CN1C[C@@H](OC(=O)N2CCN(c3nc4c(-c5cccnc5OC5CCOC5)cnn4cc3F)CC2)CC1=O (stereo partly drawn) [Compound I-120, [(3S)-1-methyl-5-oxo-pyrrolidin-3-yl]4-[6-fluoro-3-(2-tetrahydrofuran-3-yloxy-3-pyridyl)pyrazolo[1,5-a]pyrimidin-5-yl]piperazine-1-carboxylate]	151 to 500 nM	–	51 to 150 nM	> 1500 nM	–
CN1C[C@@H](OC(=O)N2CCN(c3nc4c(-c5cccnc5OC5CCCC5)cnn4cc3F)CC2)CC1=O [Compound I-121, [(3S)-1-methyl-5-oxo-pyrrolidin-3-yl]-4-[3-[2-(cyclopentoxy)-3-pyridyl]-6-fluoro-pyrazolo[1,5-a]pyrimidin-5-yl]piperazine-1-carboxylate]	501 to 1500 nM	–	51 to 150 nM	> 1500 nM	–
CN1C[C@@H](OC(=O)N2CCN(c3nc4c(-c5cccnc5OC5CCOCC5)cnn4cc3F)CC2)CC1=O [Compound I-122, [(3S)-1-methyl-5-oxo-pyrrolidin-3-yl]4-[6-fluoro-3-(2-tetrahydropyran-4-yloxy-3-pyridyl)pyrazolo[1,5-a]pyrimidin-5-yl]piperazine-1-carboxylate]	151 to 500 nM	–	51 to 150 nM	501 to 1500 nM	–
COc1ncccc1-c1cnn2ccc(N3CCN(C(=O)OC(C)C)CC3)nc12 [LP-935509]	–	–	–	–	IC50 [1]: 33.3 nM; IC50 [2]: 720 nM
